Results: patent US20200223889A1, “Bicyclic Compounds Capable of Binding to Melanocortin 4 Receptor” (Novo Nordisk A/S, priority 2017, published 2020)
Where two headings read alike, the source gives them in different places. Positions of bridges follow the written chain, without caps; N, C: chain ends. Non-standard residues stand in square brackets, D forms with d. Residues, ends and D or L forms follow the SMILES beside them. Ser(ΨH,HPro) = O=C(O)[C@@H]1COCN1; Hyp = O=C(O)[C@@H]1C[C@@H](O)CN1; hCit = NC(=O)NCCCC[C@H](N)C(=O)O; Orn = NCCC[C@H](N)C(=O)O; Thz = O=C(O)[C@@H]1CSCN1

Legend:
[1] = In vivo acute food intake model (BioDAQ) in C57BL/6J male mice; details: single subcutaneous dose 1 mg/kg, cumulative food intake
Protocol: The MC4R system is central to appetite regulation and agonists are known inhibit food intake. In order to screen compounds in a relevant in vivo model, efficacy was assessed by determining the effect of the compound on reducing food intake acutely in mice.
All animal protocols were approved by an Institutional Animal Care and Use Committee and Ethical Review Committee of Novo Nordisk. Animals were housed according to Novo Nordisk rodent housing standards, and were given ad libitum access to food and water under controlled lighting (12 h:12 h light/dark cycle; lights off 11:00-23:00), temperature (23±2° C.) and relative humidity (50±20%) conditions. For each acute food intake study C57BL/6J male mice (25-30 grams body weight) were acclimated for two weeks to the appropriate light cycle and to single-housing (one mouse per cage) in cages linked to a BioDAQ automated food intake system (Research Diets Inc., New Brunswick, N.J. USA). The animals were also acclimated to new food (Research Diets 12450B, 10% kcal fat) during this time.
The BioDAQ is a computer automated scientific instrument for Biological Data Acquisition of food intake in rodents and measures food intake from each cage every 15 minutes. A total of 32 animals can be accommodated in the system per study, therefore, animals were randomized into 4 groups of n=8 for each study. […] Animals were fasted ˜4 hr prior to dosing. Vehicle (10 mM phosphate; 140 mM sodium chloride) or compound was dosed at a volume of 10 ml per kg subcutaneously approximately 20 minutes prior to the start of the dark cycle (compound chem no. and dosages are indicated in table 2 below). After dosing, food intake was recorded for approximately 24 hours.
The inhibitory effect of compounds on food intake was generally well-correlated with in vitro binding affinity on the human MC4 receptor and with plasma stability of the compound. Most studies were conducted as dose response studies with vehicle and the compound at 3 doses (0.3, 1 and 3 mg/kg). Some studies were done for the purpose of dose-range finding, while others were done to comparatively assess the effect of 3 compounds at the same dose. Maximal effects on food intake occurred within the first 1-5 hours post-dose. The comparative effect of compounds across studies on food intake was assessed by normalizing measurements as % effect on cumulative food intake after a single subcutaneous dose, relative to vehicle. Results are reported in Table 2 as % effect on food intake at 3 hours post dose.

human MC4R [2] = biological target: T1, human MC4R (Homo sapiens, UniProt P32245); test: Functional cAMP assay (CisBio HTRF) in BHK cells expressing human MC4R; type: cell-based; details: for MC1R/MC4R cAMP EC50 ratio: MC1R cAMP EC50 divided by MC4R cAMP EC50
T1 construct: expressed in transfected cells
Summary of the method: (§1)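 Stably transfected BHK cells expressing human MC1R or MC4R; cAMP quantified by HTRF (cAMP-d2/cryptate) after 30 min compound stimulation at 25 °C in DMEM-based buffer with 1 mM IBMX. Compounds were prepared as 10-fold serial dilutions starting at 2 μM (working solution, 2× final). Readout after 1 h at 25 °C; non-linear regression.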

human MC4R [3] = biological target: T1, human MC4R; test: 125NDP-α-MSH competitive binding to membranes of BHK cells expressing human MC4 receptor (filtration assay)
Summary of the method: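 Displacement of ^125NDP-α-MSH (apx. […] final) was measured by filtration after 2 h at 25 °C, using diluted membranes of stably transfected BHK cells in pH 7.0 HEPES buffer. Compounds spanned 1 μM to 0.001 nM; binding curves were analysed by non-linear regression.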

human MC1R = biological target: T2, human MC1R (Homo sapiens, UniProt Q01726); test: Functional cAMP assay (CisBio HTRF) in BHK cells expressing human MC1R; type: cell-based
T2 construct: expressed in transfected cells
Summary of the method: as §1

[4] = human MC4R, BHK cell membranes, 125NDP-α-MSH radioligand, read-out: MC4R binding Ki
[5] = BHK cells expressing human MC4R, '>' = highest dose used with no response, read-out: MC4R cAMP EC50
[6] = BHK cells expressing human MC1R, '>' = highest dose used with no response, read-out: MC1R cAMP EC50

T2 sequence (Q01726 whole entry): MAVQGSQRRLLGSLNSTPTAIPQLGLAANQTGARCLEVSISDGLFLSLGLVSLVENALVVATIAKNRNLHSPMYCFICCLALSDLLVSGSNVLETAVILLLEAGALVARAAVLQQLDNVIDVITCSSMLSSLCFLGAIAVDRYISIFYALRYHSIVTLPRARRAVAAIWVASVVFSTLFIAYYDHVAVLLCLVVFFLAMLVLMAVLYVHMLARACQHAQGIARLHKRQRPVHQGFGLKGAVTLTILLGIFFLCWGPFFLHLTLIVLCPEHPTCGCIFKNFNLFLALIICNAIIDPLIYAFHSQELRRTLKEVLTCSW
T1 sequence (P32245 whole entry): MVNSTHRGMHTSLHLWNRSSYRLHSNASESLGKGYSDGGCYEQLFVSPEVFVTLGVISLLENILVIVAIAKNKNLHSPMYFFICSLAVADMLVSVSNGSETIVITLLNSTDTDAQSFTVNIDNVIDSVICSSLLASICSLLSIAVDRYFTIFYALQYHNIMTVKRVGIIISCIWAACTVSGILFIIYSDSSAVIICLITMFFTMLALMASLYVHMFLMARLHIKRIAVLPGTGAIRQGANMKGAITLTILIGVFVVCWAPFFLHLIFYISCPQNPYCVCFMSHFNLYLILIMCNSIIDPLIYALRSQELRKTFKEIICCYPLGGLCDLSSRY

| Compound | Ki (human MC4R [3]; [4]) [nM] | EC50 (human MC4R [2]; [5]) [nM] | EC50 (human MC1R; [6]) [nM] | % Effect on food intake at 3 hours post dose, relative to vehicle [1] [%] | MC1R/MC4R cAMP EC50 ratio (human MC4R [2]) | EC50 (human MC1R) [nM] | Ki (human MC4R [3]) [nM] | EC50 (human MC4R [2]) [nM] |
| --- | --- | --- | --- | --- | --- | --- | --- | --- |
| NCCCC[C@@H]1NC(=O)[C@@H]2CSSC[C@H](NC(=O)[C@H](Cc3c[nH]c4ccccc34)NC(=O)[C@H](Cc3c[nH]cn3)NC(=O)[C@@H](Cc3ccccc3)NC(=O)[C@H](Cc3c[nH]cn3)NC1=O)C(=O)N[C@@H](CCCCN)C(=O)N[C@@H](Cc1c[nH]cn1)C(=O)N[C@H](Cc1ccccc1)C(=O)N[C@@H](Cc1c[nH]cn1)C(=O)N[C@@H](Cc1c[nH]c3ccccc13)C(=O)N2 [Chem. 52, c[c[Cys-Lys-His-D-Phe-His-Trp-Cys]- Lys-His-D-Phe-His-Trp]] (cyclo(CKH[dF]HWCKH[dF]HW); disulfide 1-7) | – | – | – | −66 ± 9 | 207 | – | – | – |
| C[C@@H]1NC(=O)[C@H](C)NC(=O)[C@H](C)NC(=O)[C@@H]2CSSC[C@H](NC(=O)[C@H](CCCNC(=N)N)NC(=O)[C@H](C)NC1=O)C(=O)N[C@@H](C)C(=O)N[C@@H](Cc1c[nH]cn1)C(=O)N[C@H](Cc1ccccc1)C(=O)N[C@@H](CCCNC(=N)N)C(=O)N[C@@H](Cc1c[nH]c3ccccc13)C(=O)N2 [Chem. 89, c[c[Cys-Ala-His-D-Phe-Arg-Trp-Cys]- Ala-Ala-Ala-Ala-Arg]] (cyclo(AAAARCAH[dF]RWC); disulfide 6-12) | – | – | – | – | 30 | 0.59 | 0.07 | 0.02 |
| C[C@@H]1NC(=O)[C@H](C)NC(=O)[C@@H]2CSSC[C@H](NC(=O)[C@H](CCCNC(=N)N)NC(=O)[C@H](C)NC(=O)[C@@H](C)NC1=O)C(=O)N[C@@H](C)C(=O)N[C@@H](Cc1c[nH]cn1)C(=O)N[C@H](Cc1ccccc1)C(=O)N[C@@H](CCCNC(=N)N)C(=O)N[C@@H](Cc1c[nH]c3ccccc13)C(=O)N2 [Chem. 90, c[c[Cys-Ala-His-D-Phe-Arg-Trp-Cys]- Ala-Ala-D-Ala-Ala-Arg]] (cyclo(AA[dA]ARCAH[dF]RWC); disulfide 6-12) | – | – | – | – | 65 | 0.65 | 0.11 | 0.01 |
| C[C@@H]1NC(=O)[C@H](CCC(=O)O)NC(=O)[C@H](CCC(=O)O)NC(=O)[C@H](C)NC(=O)[C@@H]2CSSC[C@H](NC(=O)[C@H](Cc3c[nH]c4ccccc34)NC1=O)C(=O)N[C@@H](C)C(=O)N[C@@H](Cc1c[nH]cn1)C(=O)N[C@H](Cc1ccccc1)C(=O)N[C@@H](CCCNC(=N)N)C(=O)N[C@@H](Cc1c[nH]c3ccccc13)C(=O)N2 [Chem. 102, c[c[Cys-Ala-His-D-Phe-Arg-Trp-Cys]- Ala-Glu-Glu-Ala-Trp]] (cyclo(AEEAWCAH[dF]RWC); disulfide 6-12) | – | – | – | – | 29 | 14.3 | 10.1 | 0.49 |
| C[C@@H]1NC(=O)[C@H](C)NC(=O)[C@@H]2CSSC[C@H](NC(=O)[C@H](Cc3c[nH]c4ccccc34)NC(=O)[C@H](C)NC(=O)[C@H](CCCCN)NC1=O)C(=O)N1CSC[C@H]1C(=O)N[C@@H](Cc1c[nH]cn1)C(=O)N[C@H](Cc1ccccc1)C(=O)N[C@@H](Cc1c[nH]cn1)C(=O)N[C@@H](Cc1c[nH]c3ccccc13)C(=O)N2 [Chem. 109, c[c[Cys-THAZ-His-D-Phe-His-Trp- Cys]-Ala-Ala-Lys-Ala-Trp]] (cyclo(AAKAWC[Thz]H[dF]HWC); disulfide 6-12) | – | – | – | – | >47 | > 7 | 0.3 | 0.15 |
| C[C@@H]1NC(=O)[C@@H]2CSSC[C@H](NC(=O)[C@H](CCCNC(=N)N)NC(=O)[C@H](CCCN)NC(=O)[C@H](CCC(=O)O)NC(=O)[C@H](Cc3c[nH]cn3)NC1=O)C(=O)N1CSC[C@H]1C(=O)N[C@@H](Cc1c[nH]cn1)C(=O)N[C@H](Cc1ccccc1)C(=O)N[C@@H](Cc1c[nH]cn1)C(=O)N[C@@H](Cc1c[nH]c3ccccc13)C(=O)N2 [Chem. 120, c[c[Cys-THAZ-His-D-Phe-His-Trp- Cys]-Ala-His-Glu-Orn-Arg]] (cyclo(AHE[Orn]RC[Thz]H[dF]HWC); disulfide 6-12) | – | – | – | −28 ± 12 | 3673 | – | – | 0.08 |

Second part, led by results:

| Ki (human MC4R [3]; [4]) [nM] | EC50 (human MC4R [2]; [5]) [nM] | EC50 (human MC1R; [6]) [nM] | Compound | % Effect on food intake at 3 hours post dose, relative to vehicle [1] [%] | MC1R/MC4R cAMP EC50 ratio (human MC4R [2]) | EC50 (human MC1R) [nM] | Ki (human MC4R [3]) [nM] | EC50 (human MC4R [2]) [nM] |
| --- | --- | --- | --- | --- | --- | --- | --- | --- |
| 0.07 | 0.38 | – | C[C@@H]1NC(=O)[C@@H]2CSSC[C@H](NC(=O)[C@H](Cc3c[nH]c4ccccc34)NC(=O)[C@H](CCCCN)NC(=O)[C@H](CCCCN)NC(=O)[C@H](CCCCN)NC1=O)C(=O)N1C[C@H](O)C[C@H]1C(=O)N[C@@H](Cc1c[nH]cn1)C(=O)N[C@H](Cc1ccccc1)C(=O)N[C@@H](Cc1c[nH]cn1)C(=O)N[C@@H](Cc1c[nH]c3ccccc13)C(=O)N2 [Chem. 70, c[c[Cys-Hyp-His-D-Phe-His-Trp-Cys]- Ala-Lys-Lys-Lys-Trp]] (cyclo(AKKKWC[Hyp]H[dF]HWC); disulfide 6-12) | −39 ± 10 | 199 | – | – | – |
| 0.6 | – | > 55 | C[C@@H]1NC(=O)[C@@H]2CSSC[C@H](NC(=O)[C@H](Cc3c[nH]c4ccccc34)NC(=O)[C@H](CCCCN)NC(=O)[C@H](CCCCN)NC(=O)[C@H](CCCCN)NC1=O)C(=O)N1CCC[C@@H]1C(=O)N[C@@H](Cc1c[nH]cn1)C(=O)N[C@H](Cc1ccccc1)C(=O)N[C@@H](Cc1c[nH]cn1)C(=O)N[C@@H](Cc1c[nH]c3ccccc13)C(=O)N2 [Chem. 98, c[c[Cys-D-Pro-His-D-Phe-His-Trp- Cys]-Ala-Lys-Lys-Lys-Trp]] (cyclo(AKKKWC[dP]H[dF]HWC); disulfide 6-12) | – | >20 | – | – | – |
| 0.1 | 0.39 | 5.29 | C[C@@H]1NC(=O)[C@@H]2CSSC[C@H](NC(=O)[C@H](CCCNC(=N)N)NC(=O)[C@H](CCCCN)NC(=O)[C@H](CCCCN)NC(=O)[C@H](CCCCN)NC1=O)C(=O)N1CCC[C@H]1C(=O)N[C@@H](Cc1c[nH]cn1)C(=O)N[C@H](Cc1ccccc1)C(=O)N[C@@H](CCCCNC(N)=O)C(=O)N[C@@H](Cc1c[nH]c3ccccc13)C(=O)N2 [Chem. 99, c[c[Cys-Pro-His-D-Phe-Cit-Trp-Cys]- Ala-Lys-Lys-Lys-Arg]] (cyclo(AKKKRCPH[dF][hCit]WC); disulfide 6-12) | – | 14 | – | – | – |
| 0.05 | 0.04 | 0.19 | C[C@@H]1NC(=O)[C@@H]2CSSC[C@H](NC(=O)[C@H](Cc3c[nH]c4ccccc34)NC(=O)[C@H](CCCNC(=N)N)NC(=O)[C@@H](Cc3ccccc3)NC(=O)[C@H](Cc3c[nH]cn3)NC1=O)C(=O)N[C@@H](CCCCN)C(=O)N[C@@H](CCCCN)C(=O)N[C@@H](CCCCN)C(=O)N[C@@H](CCCNC(=N)N)C(=O)N2 [Chem. 101, c[c[Cys-Ala-His-D-Phe-Arg-Trp-Cys]- Lys-Lys-Lys-Arg]] (cyclo(AH[dF]RWCKKKRC); disulfide 6-11) | – | 5 | – | – | – |
| 0.06 | 0.05 | > 70 | C[C@@H]1NC(=O)[C@@H]2CSSC[C@H](NC(=O)[C@H](Cc3c[nH]c4ccccc34)NC(=O)[C@H](CCCCN)NC(=O)[C@H](CCCCN)NC(=O)[C@H](CCCCN)NC1=O)C(=O)N1COC[C@H]1C(=O)N[C@@H](Cc1c[nH]cn1)C(=O)N[C@H](Cc1ccccc1)C(=O)N[C@@H](Cc1c[nH]cn1)C(=O)N[C@@H](Cc1c[nH]c3ccccc13)C(=O)N2 [Chem. 103, c[c[Cys-OXA-His-D-Phe-His-Trp- Cys]-Ala-Lys-Lys-Lys-Trp]] (cyclo(AKKKWC[Ser(ΨH,HPro)]H[dF]HWC); disulfide 6-12) | – | >1400 | – | – | – |
| 1.21 | 0.19 | 30.2 | C[C@@H]1NC(=O)[C@@H]2CSSC[C@H](NC(=O)[C@H](Cc3c[nH]c4ccccc34)NC(=O)[C@H](CCCNC(=N)N)NC(=O)[C@@H](Cc3ccccc3)NC(=O)[C@H](Cc3c[nH]cn3)NC1=O)C(=O)N1CCC[C@H]1C(=O)N1CCC[C@H]1C(=O)N[C@@H](CCC(=O)O)C(=O)N[C@@H](CCCNC(=N)N)C(=O)N[C@@H](Cc1c[nH]c3ccccc13)C(=O)N2 [Chem. 112, c[c[Cys-Ala-His-D-Phe-Arg-Trp-Cys]- Pro-Pro-Glu-Arg-Trp]] (cyclo(AH[dF]RWCPPERWC); disulfide 6-12) | – | 159 | – | – | – |
